Results on 25 molecules are retold here after PubChem BioAssay AID651549 (Sanford-Burnham Center for Chemical Genomics, 2012).

This assay is described as follows: GAPDH and PEG-3 promoter luciferase suppression – cell-based, luminescence, set 2, counter-screen for PEG-3 promoter inhibitor project, dose response (AID 651549). Particulars: HeLa PEG-Prom-luciferase or GAPDH-reporter, 6/24 h. (The purpose of a counterscreen is to sort out artefacts and off-target activity.)

Active and inactive are the calls of the source.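 The calls were made as follows: active = compounds blocking the PEG3 reporter with IC50 up to 10 µM at either incubation, yet sparing the GAPDH control reporter; inactive = the rest.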 Where only a bound is given, the exact number is not on record here.

By IC50 is commonly meant the concentration that inhibits the measured activity by half.

Take `CCC(c1nnnn1-c1ccc2c(c1)OCCO2)N1CCC(n2c(=O)[nH]c3ccccc32)CC1` (stereo not given): the IC50 result reads like this: (GAPDH, run 1, 6 h) “inactive”; (PEG-3, run 1, 6 h) “inactive”; (PEG-3, run 1, 24 h) “inactive”. Further, the IC50 (GAPDH, run 1, 24 h) was 4.01 µM.

As to `COC(=O)C1=C(CN2CCCc3ccccc32)NC(=O)NC1c1ccc(F)cc1` (stereo not given), the IC50 runs as follows: (GAPDH, run 1, 6 h) 1.39 µM; (GAPDH, run 1, 24 h) 0.789 µM; (PEG-3, run 1, 6 h) 0.625 µM; (PEG-3, run 1, 24 h) 0.681 µM.

On to `Cc1cccc(-n2cc(-c3ccccc3)c3c(N4CCOCC4)ncnc32)c1`, for which the IC50 (GAPDH, run 1, 6 h) is > 99 µM (inactive) and the IC50 (PEG-3, run 1, 6 h) was > 99 µM (inactive). For the same molecule, the IC50 result by setting is: (GAPDH, run 1, 24 h) “inactive”; (PEG-3, run 1, 24 h) “inactive”.

Consider `O=C(O)c1ccc2nc(-c3ccccc3)sc2c1`, for which the IC50 (GAPDH, run 1, 6 h) was 6.04 µM; the IC50 (GAPDH, run 1, 24 h) is 0.72 µM; the 50% inhibitory concentration (IC50) (PEG-3, run 1, 6 h) is 7.05 µM; the IC50 (PEG-3, run 1, 24 h) is 7.03 µM.

For `COC1CC(C)C(OC)c2cc(O)cc(c2O)NC(=O)C(C)=CC=CC(C)C(OC(N)=O)C(C)=CC(C)C1OC` (stereo not given), the IC50 entry was “inactive” (GAPDH, run 1, 6 h); “inactive” (GAPDH, run 1, 24 h); “inactive” (PEG-3, run 1, 6 h); “inactive” (PEG-3, run 1, 24 h).

Take `COc1ccc(-n2cc(-c3ccccc3)c3c(N4CCOCC4)ncnc32)cc1`: the IC50 entry by setting is: (GAPDH, run 1, 6 h) “inactive”; (PEG-3, run 1, 6 h) “inactive”; (PEG-3, run 1, 24 h) “inactive”. In addition, the half-maximal inhibitory concentration (IC50) (GAPDH, run 1, 24 h) was 2.98 µM.

In the case of `CS(=O)(=O)c1ccc(-c2cn3cc(C(=O)O)ccc3n2)cc1`, the IC50 result was “inactive” (GAPDH, run 1, 6 h); “inactive” (PEG-3, run 1, 6 h); “inactive” (PEG-3, run 1, 24 h). For the same molecule, the IC50 (GAPDH, run 1, 24 h) is 3.4 µM.

As to `Cc1ccc(S(=O)(=O)NC(CC(C)C)C(=O)NCC(c2ccco2)N2CCCCC2)cc1` (stereo not given), the IC50 entry is “inactive” (GAPDH, run 1, 6 h); “inactive” (GAPDH, run 1, 24 h); “inactive” (PEG-3, run 1, 6 h); “inactive” (PEG-3, run 1, 24 h).

Consider `Cc1ccc2nc(NC(=O)CSCC(=O)OCC(=O)c3ccc(Br)cc3)sc2c1`, for which the IC50 is 3.81 µM (GAPDH, run 1, 6 h); 1.98 µM (GAPDH, run 1, 24 h); > 99 µM (inactive) (PEG-3, run 1, 6 h); 1.96 µM (PEG-3, run 1, 24 h).

Consider `O=C(Nc1cccc(-c2ccc(N3CCCCC3)nn2)c1)C(F)(F)F`, for which the IC50 is 3.5 µM (GAPDH, run 1, 6 h); 5.36 µM (PEG-3, run 1, 6 h); 8.67 µM (PEG-3, run 1, 24 h). Also, the IC50 entry (GAPDH, run 1, 24 h) is “inactive”.

As to `Cc1cc(C)cc(NS(=O)(=O)c2ccc3c(c2)c(=O)n(C)c(=O)n3C)c1`, under “GAPDH, run 1, 6 h”, the IC50 result is “inactive”. For the same molecule, the IC50 runs as follows: (GAPDH, run 1, 24 h) 1.85 µM; (PEG-3, run 1, 6 h) > 99 µM (inactive); (PEG-3, run 1, 24 h) 4.62 µM.

On to `CN1CCC2(CC1)N=C(c1ccc(F)cc1)C(=S)N2C(=O)c1ccc(C(C)(C)C)cc1`, for which the IC50 entry by setting is: (GAPDH, run 1, 6 h) “inactive”; (GAPDH, run 1, 24 h) “inactive”; (PEG-3, run 1, 6 h) “inactive”; (PEG-3, run 1, 24 h) “inactive”.

On to `CC(C)(C)c1ccc(Cn2c(=O)cnc3ccccc32)cc1`, for which the IC50 is, setting by setting: (GAPDH, run 1, 6 h) 6 µM; (GAPDH, run 1, 24 h) 6.64 µM; (PEG-3, run 1, 6 h) 3.47 µM. The IC50 entry (PEG-3, run 1, 24 h) is “inactive”.

Take `Cc1cc2cc(CCNC(=O)C(=O)c3c[nH]c4ccccc34)c(=O)[nH]c2cc1C`: the IC50 entry (GAPDH, run 1, 6 h) was “inactive”. In addition, the IC50 was 4.9 µM (GAPDH, run 1, 24 h); > 99 µM (inactive) (PEG-3, run 1, 6 h); 7.83 µM (PEG-3, run 1, 24 h).

`CCn1cc(C(=O)NCc2ccco2)c(=O)c2cc(S(=O)(=O)N3CC(C)CC(C)C3)ccc21` (stereo not given): the IC50 result (GAPDH, run 1, 6 h) is “inactive”. Further, the IC50 is 2.7 µM (GAPDH, run 1, 24 h); > 99 µM (inactive) (PEG-3, run 1, 6 h); 2.63 µM (PEG-3, run 1, 24 h).

On to `CCc1ccn2cc(-c3ccc4c(c3)OCO4)nc2c1`, for which the 50% inhibitory concentration (IC50) was 2.23 µM (GAPDH, run 1, 6 h); 2.12 µM (PEG-3, run 1, 6 h); 5.02 µM (PEG-3, run 1, 24 h). Moreover, where the note is “GAPDH, run 1, 24 h”, the IC50 result is “inactive”.

Regarding `CC(=O)OC1(C)CC(C)C(=O)C(C(O)CC2CC(=O)NC(=O)C2)C1` (stereo not given), the IC50 reads like this: (GAPDH, run 1, 6 h) less than 1 µM; (GAPDH, run 1, 24 h) less than 1 µM; (PEG-3, run 1, 6 h) less than 1 µM; (PEG-3, run 1, 24 h) 0.353 µM.

`CCCn1nc(C(=O)Nc2nc(-c3ccccn3)cs2)c2ccccc2c1=O`: the IC50 result (GAPDH, run 1, 6 h) is “inactive” and the IC50 entry (GAPDH, run 1, 24 h) was “inactive”. Moreover, the IC50 runs as follows: (PEG-3, run 1, 6 h) > 99 µM (inactive); (PEG-3, run 1, 24 h) > 99 µM (inactive).

In the case of `O=C(O)CSCC(=O)Nc1ccc(C2CCCCC2)cc1`, the IC50 by setting is: (GAPDH, run 1, 6 h) 5.37 µM; (GAPDH, run 1, 24 h) 0.307 µM; (PEG-3, run 1, 6 h) 5.56 µM; (PEG-3, run 1, 24 h) 4.57 µM.

As for `Cc1cccc(NC(=O)c2nc(S(=O)(=O)Cc3ccccc3)ncc2Cl)c1`, the 50% inhibitory concentration (IC50) is, setting by setting: (GAPDH, run 1, 6 h) 8.24 µM; (GAPDH, run 1, 24 h) 7.13 µM. The IC50 entry was “inactive” (PEG-3, run 1, 6 h) and “inactive” (PEG-3, run 1, 24 h).

On to `CC(C)(C)c1ccc(Oc2ccc(N)cc2)cc1`, for which the IC50 was 6.12 µM (GAPDH, run 1, 6 h); 5.35 µM (GAPDH, run 1, 24 h); 6.09 µM (PEG-3, run 1, 6 h); 6.51 µM (PEG-3, run 1, 24 h).

`Nc1ncn([C@@H]2O[C@H](CO)[C@@H](O)[C@H]2O)c(=O)n1`: the half-maximal inhibitory concentration (IC50) was 2.73 µM (GAPDH, run 1, 6 h) and 0.557 µM (GAPDH, run 1, 24 h). In addition, the IC50 result by setting is: (PEG-3, run 1, 6 h) “inactive”; (PEG-3, run 1, 24 h) “inactive”.

Regarding `CN1OC[C@@H]2CN(S(=O)(=O)c3cccc(C(F)(F)F)c3)[C@H](c3ccc(-c4cc5ccccc5o4)cc3)C[C@@H]21`, the IC50 result by setting is: (GAPDH, run 1, 6 h) “inactive”; (PEG-3, run 1, 6 h) “inactive”; (PEG-3, run 1, 24 h) “inactive”. Further, the concentration for half-maximal inhibition (IC50) (GAPDH, run 1, 24 h) was 6.66 µM.

Take `Cc1cc(C(=O)Nc2cccc(C(=O)O)c2)oc1C`: where the note is “GAPDH, run 1, 6 h”, the IC50 was 7.74 µM. The IC50 result (GAPDH, run 1, 24 h) is “inactive”; the IC50 entry (PEG-3, run 1, 6 h) is “inactive”; the IC50 entry (PEG-3, run 1, 24 h) is “inactive”.

For the molecule `O=C(COc1ccc2c(c1)CCC2)Nc1ccccn1`, the half-inhibitory concentration (IC50) was 2.7 µM (GAPDH, run 1, 6 h); 1.82 µM (GAPDH, run 1, 24 h); 2.41 µM (PEG-3, run 1, 6 h); 5.02 µM (PEG-3, run 1, 24 h).
